Measurements as given in patent US20230340498A1, “COMPOSITIONS AND METHODS FOR INDUCIBLE ALTERNATIVE SPLICING REGULATION OF GENE EXPRESSION” (The Children's Hospital of Philadelphia, priority 2020, published 2023).

Tested on: SMN2-on minigene
Assay: SMN2-on cassette Firefly luciferase reporter assay in transfected HEK293 cells
Type: cell-based, Human
Conditions: HEK293 cells, varying doses
Experimental: Cell culture, transfection, and LMI070/RG7800 treatment. Human embryonic kidney (HEK293) cells (obtained from CHOP Research Vector Core stock) were maintained in DMEM media containing 10% Fetal Bovine Serum (FBS), 1% L-Glutamine and 1% penicillin/streptomycin at 37° C. with 5% CO2. Cells were cultured in 24 well plates and transfected at 80-90% confluence using Lipofectamine 2000 transfection reagent, according to the manufacturer’s protocol. For all experiments, 4 hours after plasmid transfection, cells were treated with LMI070 (MedChemExpress, HY-19620, suspended in DMSO) or RG7800 (MedChemExpress, HY-101792A, suspended in H2O) at the indicated concentrations. Cells were tested for mycoplasma by Research Vector Core. None of the cells used in the study were listed in ICLAC database of commonly misidentified cell lines.
In vitro luciferase assays. HEK293 cells were cultured in DMEM (10% FBS (v/v), 1% Pen/ Strep (v/v), and 1% L-glutamine (v/v) in a 24-well plate. At 70%-80% confluence, cells were co-transfected with the Xon.Firefly luciferase cassettes (0.3 µg/well) and a SV40p-Renilla luciferase cassette as transfection control (0.02 µg/well). Four hours after transfections cells were treated either with LMI070 or RG7800 at indicated concentrations. At 24 h after transfection, cells were rinsed with ice-cold PBS and Renilla and Firefly luciferase activities were assessed using the Dual-Luciferase Reporter Assay System (Promega) according to the manufacturer’s instructions. Luminescent readouts were obtained with a Monolight 3010 luminometer (Pharmigen). Relative light units (RLUs) were calculated as the quotient of […] RLUs and results expressed relative to mock treated control cells.
For this, SMN2-on cassettes were generated to provide drug-induced reporter gene expression. HEK293 cells were transfected with the SMN2-on expression cassettes and luciferase activity evaluated in response to varying doses of LMI070 or RG7800. […]

## CCc1nc(C)cn2nc(-c3cc(=O)n4cc(C5CCN(C)CC5)cc(C)c4n3)cc12 [RG7800]
  luciferase activity from the SMN2-on minigene: induced luciferase activity
